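Following 48 hours of exposure in 96-well plates, responses at five concentrations were used to interpolate endpoints linearly. GI50 = concentration required for 50% inhibition of growth. The concentration for full growth arrest is given as TGI.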
How the values were obtained:
Experiment in all cases: growth of human tumour cells (NCI), 48 h
OVCAR-4 ovarian = test system: OVCAR-4 ovarian
SF-295 CNS = test system: SF-295 CNS
LOX IMVI melanoma = test system: LOX IMVI melanoma
MCF7 breast = test system: MCF7 breast
HCC-2998 colon = test system: HCC-2998 colon
SN12C renal = test system: SN12C renal
MDA-MB-435 = test system: MDA-MB-435
HCT-116 colon = test system: HCT-116 colon
OVCAR-3 ovarian = test system: OVCAR-3 ovarian
SF-539 CNS = test system: SF-539 CNS
786-0 renal = test system: 786-0 renal
NCI-H23 lung = test system: NCI-H23 lung
CCRF-CEM leukemia = test system: CCRF-CEM leukemia
OVCAR-8 ovarian = test system: OVCAR-8 ovarian
T-47D breast = test system: T-47D breast
NCI-H522 lung = test system: NCI-H522 lung
HT29 colon = test system: HT29 colon
A549 NSCLC = test system: A549 NSCLC
UACC-62 melanoma = test system: UACC-62 melanoma
MDA-MB-231 breast = test system: MDA-MB-231 breast
NCI-H226 lung = test system: NCI-H226 lung
HCT-15 colon = test system: HCT-15 colon
UACC-257 melanoma = test system: UACC-257 melanoma
TK-10 renal = test system: TK-10 renal
SK-MEL-28 melanoma = test system: SK-MEL-28 melanoma
SNB-75 CNS = test system: SNB-75 CNS
OVCAR-5 ovarian = test system: OVCAR-5 ovarian
COLO 205 colon = test system: COLO 205 colon
MOLT-4 leukemia = test system: MOLT-4 leukemia
SK-MEL-5 melanoma = test system: SK-MEL-5 melanoma
SR leukemia = test system: SR leukemia
NCI-H460 lung = test system: NCI-H460 lung
A498 renal = test system: A498 renal
HL-60(TB) leukemia = test system: HL-60(TB) leukemia
U251 CNS = test system: U251 CNS
RPMI-8226 leukemia = test system: RPMI-8226 leukemia
KM12 colon = test system: KM12 colon
HOP-92 NSCLC = test system: HOP-92 NSCLC
SNB-19 CNS = test system: SNB-19 CNS
M14 melanoma = test system: M14 melanoma
SK-OV-3 ovarian = test system: SK-OV-3 ovarian
HOP-62 NSCLC = test system: HOP-62 NSCLC
HS 578T breast = test system: HS 578T breast
NCI/ADR-RES ovarian = test system: NCI/ADR-RES ovarian
IGROV1 ovarian = test system: IGROV1 ovarian
SF-268 CNS = test system: SF-268 CNS
SK-MEL-2 melanoma = test system: SK-MEL-2 melanoma
MALME-3M melanoma = test system: MALME-3M melanoma
CAKI-1 renal = test system: CAKI-1 renal
RXF 393 renal = test system: RXF 393 renal
EKVX NSCLC = test system: EKVX NSCLC
MDA-N = test system: MDA-N
UO-31 renal = test system: UO-31 renal
K-562 leukemia = test system: K-562 leukemia
DU-145 prostate = test system: DU-145 prostate
PC-3 prostate = test system: PC-3 prostate
SW-620 colon = test system: SW-620 colon
BT-549 breast = test system: BT-549 breast
ACHN renal = test system: ACHN renal

Cc1nc2ccccc2nc1NNc1ccccc1
TGI (OVCAR-4 ovarian): > 87.8 µM | TGI (SF-295 CNS): > 93.6 µM | TGI (LOX IMVI melanoma): 70.7 µM | TGI (MCF7 breast): > 100 µM | TGI (HCC-2998 colon): > 100 µM | TGI (SN12C renal): 72.9 µM | TGI (MDA-MB-435): 41.7 µM | TGI (HCT-116 colon): > 100 µM | TGI (OVCAR-3 ovarian): 70.4 µM | TGI (SF-539 CNS): > 96.2 µM | TGI (786-0 renal): > 92.1 µM | TGI (NCI-H23 lung): 77.2 µM | TGI (CCRF-CEM leukemia): 78.7 µM | TGI (OVCAR-8 ovarian): 77.8 µM | TGI (T-47D breast): 46.9 µM | TGI (NCI-H522 lung): > 88.4 µM | TGI (HT29 colon): 18.7 µM | TGI (A549 NSCLC): > 95.9 µM | TGI (UACC-62 melanoma): 43.4 µM | TGI (MDA-MB-231 breast): 70.7 µM | TGI (NCI-H226 lung): 85.7 µM | TGI (HCT-15 colon): > 82.6 µM | TGI (UACC-257 melanoma): 74.3 µM | TGI (TK-10 renal): 98.7 µM | TGI (SK-MEL-28 melanoma): > 96.7 µM | TGI (SNB-75 CNS): > 84.9 µM | TGI (OVCAR-5 ovarian): > 84.4 µM | TGI (COLO 205 colon): 1.03 µM | GI50 (MOLT-4 leukemia): 12.1 µM | TGI (MOLT-4 leukemia): 40.7 µM | TGI (SK-MEL-5 melanoma): 31.5 µM | TGI (SR leukemia): 74.5 µM | TGI (NCI-H460 lung): > 88.7 µM | TGI (A498 renal): > 94.5 µM | TGI (HL-60(TB) leukemia): 58.8 µM | TGI (U251 CNS): > 93.5 µM | TGI (RPMI-8226 leukemia): 41 µM | TGI (KM12 colon): 63.4 µM | TGI (HOP-92 NSCLC): 57 µM | TGI (SNB-19 CNS): > 100 µM | TGI (M14 melanoma): 64.8 µM | GI50 (SK-OV-3 ovarian): 24.8 µM | TGI (SK-OV-3 ovarian): > 100 µM | TGI (HOP-62 NSCLC): 86.6 µM | TGI (HS 578T breast): > 95.1 µM | TGI (NCI/ADR-RES ovarian): 75.8 µM | TGI (IGROV1 ovarian): 73.3 µM | TGI (SF-268 CNS): > 100 µM | TGI (SK-MEL-2 melanoma): > 80.8 µM | TGI (MALME-3M melanoma): 69.5 µM | TGI (CAKI-1 renal): > 100 µM | GI50 (RXF 393 renal): 18.6 µM | TGI (RXF 393 renal): 78.7 µM | TGI (EKVX NSCLC): 68.2 µM | TGI (MDA-N): 48.9 µM | TGI (UO-31 renal): > 86.5 µM | TGI (K-562 leukemia): 74.5 µM | TGI (DU-145 prostate): > 86.1 µM | TGI (PC-3 prostate): > 84.4 µM | TGI (SW-620 colon): > 74.9 µM | TGI (BT-549 breast): 70 µM | TGI (ACHN renal): 85.9 µM

From PubChem BioAssay (NCI)
